These results are taken from patent US20260364184A1, “COMPOUND BASED ON OXOISOINDOLINYL-SUBSTITUTED TETRAHYDROPYRIMIDINE-DIONE AND USE THEREOF” (GLUETACS THERAPEUTICS (SHANGHAI) CO., LTD., priority 2023, published 2026).

Assay [1] concerns Human Acute T Lymphoblastic Leukemia Cells (Molt-4). Briefly: Inhibition of Molt-4 cell proliferation (CellTiter luminescent viability). It counts as cell-based. To be noted: Homo sapiens, MOLT-4, 96 h, Table IH3, BCL-2 inhibitor-based, 96 hours; for inhibition at 0.01 µM: Molt-4, 10 nM, read-out: Inhibition Rate at 10 nM (%); for inhibition at 0.5 µM: Molt-4, 500 nM, read-out: Inhibition Rate at 500 nM (%).

For assay [2], the system named is Human acute lymphocytic leukemia T lymphocytes cell line (CCRF-CEM). Nature of the assay: Inhibition of CCRF-CEM cell proliferation (CellTiter luminescent viability). It counts as cell-based. The following applies: Homo sapiens, 96 h, Table IH2, BCL-2 inhibitor-based; for inhibition at 0.01 µM: 10 nM, read-out: Inhibition Rate at 10 nM (%); for inhibition at 0.5 µM: 500 nM, read-out: Inhibition Rate at 500 nM (%).

The subject of assay [3] is Human prostate cancer cell line (NCI-H358). Briefly: Inhibition of NCI-H358 cell proliferation (CellTiter luminescent viability). To be noted: Table IH1, BCL-2 inhibitor-based, 96 hours; for inhibition at 0.01 µM: NCI-H358, 10 nM, read-out: Inhibition Rate at 10 nM (%); for inhibition at 0.5 µM: NCI-H358, 500 nM, read-out: Inhibition Rate at 500 nM (%). As to the method: The tumor cells used herein were cultured in a cell culture medium listed in table 3 at 37 °C in an incubator with 5% CO2. Prior to experimentation, all cell lines used were correctly identified by STR profiling, and tested negative for mycoplasma contamination using a mycoplasma detection kit through routine screenings.
The IC50 values of the compounds of the present disclosure (including the compounds in Table 1, Table 2, and Examples 1-468) were determined using the CellTiter-Meiluncell Luminescent Cell Viability Assay Kit from Dalian Meilun Biotech Co., Ltd. The detailed procedure is as follows: Tumor cells were seeded in 96-well cell culture plates at the densities specified in Table 4. On the following day, the test compounds of the present disclosure were subjected to serial dilution. The dilution can be performed according to one of the following two methods: • (1) The first dilution method: The test compounds of the present disclosure (including the compounds in Table 1, Table 2, and Examples 1-468) were subjected to 5-fold serial dilutions starting from a highest concentration of 2000 μM, resulting in a total of 9 concentrations from high to low (2000, 400, 80, 16, 3.2, 0.64, 0.128, 0.0256, 0.00512 μM). Subsequently, 0.5 μL of the test compound dilution was transferred into the 96-well plate containing the cells, with each well containing 100 μL of cell culture medium. […] Into the 96-well plate, the diluted test compounds and corresponding detection reagents were added, resulting in final test compound concentrations of 500 nM and 10 nM, respectively. The experimental procedure is described below using the diluted 2 μM test compound as an example.
0.5 μL of the aforementioned diluted compound of the present disclosure (including the compounds in Table 1, Table 2, and Examples 1-468) was added to the seeded cells in 100 μL of medium, yielding a final test compound concentration of 10 nM. After the cells were treated with the compounds of the present disclosure for a specified period, the cell viability assay reagent was added to the culture medium according to the kit's instructions to determine cell viability. […] All controls were treated using the same procedure as the compounds of the present disclosure. The growth inhibition curves for the compounds of the present disclosure were plotted using Prism GraphPad software, and the IC50 values were calculated therefrom.

The target in a further assay is T1, BCL-2 (Homo sapiens, UniProt P10415).
T1 construct: expression of target proteins in cells; endogenous in cells
Briefly: Western blot degradation of BCL-2. Format: cell-based. The following applies: Molt-4 Cell; 24 hours. As to the method:
Conventional Western blot assay was performed to evaluate the effects of the compounds of the present disclosure on the expression of target proteins in cells.
(1) Cell Seeding and Protein Harvesting: The selected cells were processed according to the cell seeding procedure and protein harvesting procedure in Table II-2.
(2) To the collected supernatant, 5×SDS sample loading buffer was added, followed by denaturation at 95 °C for 5 minutes. The denatured samples were then separated by SDS-PAGE electrophoresis on a polyacrylamide gel. Proteins were transferred to a nitrocellulose membrane (0.45 μm NC membrane), blocked with blocking buffer at room temperature for 1 hour, and subjected to antibody incubation and development procedures according to the antibody manufacturer's instructions (Cell Signaling Technology).
Half-Maximal Degradation Concentration value (the drug concentration required for degrading proteins by 50%, abbreviated as DC50) reads method: comparing the grayscale values of Western blot bands from drug-treated samples with those from blank DMSO-treated controls, and identifying the drug concentration range at which the grayscale value is half that of the DMSO-treated control bands.
DC50 values can be calculated using ImageJ software to measure grayscale values of Western blot bands from drug-treated samples. The concentration-response curve is fitted to estimate the drug concentration corresponding to half the grayscale value.
Target protein remaining (%) refers to the percentage of target protein remaining in cells after treatment with protein degrader compounds.
Calculation method for target protein remaining (%): Use ImageJ software to measure grayscale values of Western blot bands from drug (protein degrader)-treated samples. The grayscale value of drug-treated bands is divided by that of internal control protein bands, and the resulting quotient is normalized to obtain the relative percentage of remaining target protein after protein degrader treatment.
Target protein degradation rate (%)=1−target protein remaining (%).

T1 sequence (P10415 whole entry): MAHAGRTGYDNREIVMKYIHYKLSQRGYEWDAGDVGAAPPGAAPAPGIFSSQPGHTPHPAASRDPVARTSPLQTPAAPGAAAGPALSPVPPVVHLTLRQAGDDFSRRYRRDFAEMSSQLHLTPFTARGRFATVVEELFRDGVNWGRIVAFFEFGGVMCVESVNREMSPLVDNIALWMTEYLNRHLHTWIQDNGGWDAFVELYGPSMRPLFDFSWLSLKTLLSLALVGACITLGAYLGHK

`CC1(C)CCC(c2ccc(Cl)cc2)=C(CN2CCN(c3ccc(C(=O)NS(=O)(=O)c4ccc(N[C@H](CCN5CC6CCC5CN6Cc5ccc6c(c5)CN(N5CCC(=O)NC5=O)C6=O)CSc5ccccc5)c(S(=O)(=O)C(F)(F)F)c4)cc3)CC2)C1` (stereo partly drawn) [GT-07811, 4-(4-((4′-chloro-4,4-dimethyl-3,4,5,6-tetrahydro-[1,1′-biphenyl]-2-yl)methyl)piperazin-1-yl)-N-((4-(((2R)-4-(5-((2-(2,4-dioxotetrahydropyrimidin-1(2H)-yl)-1-oxoisoindolin-5-yl)methyl)-2,5-diazabicyclo[2.2.2]octan-2-yl)-1-(phenylthio)butan-2-yl)amino)-3-((trifluoromethyl)sulfonyl)phenyl)sulfonyl)benzamide]: the inhibition (commonly the drop in the measured response relative to a control, in per cent) at 0.01 µM in assay [1] was 40 to 50%; in assay [2] it was 5 to 10%; in assay [3], 15 to 20%. For the same compound, the inhibition at 0.5 µM in assay [1] is 80 to 100%; in assay [2], 80 to 100%; in assay [3], 40 to 50%. The “Degradation of substrate protein BCL-2 (substrate protein remaining %)” value (“Degradation … (substrate protein remaining %)” for short) on BCL-2 is recorded as “A (0%≤substrate protein remaining %≤80%)”.

With `CC1(C)CCC(c2ccc(Cl)cc2)=C(CN2CCN(c3ccc(C(=O)NS(=O)(=O)c4ccc(N[C@H](CCN5C[C@H]6C[C@@H]5CN6Cc5ccc6c(c5)CN(N5CCC(=O)NC5=O)C6=O)CSc5ccccc5)c(S(=O)(=O)C(F)(F)F)c4)cc3)CC2)C1` [GT-07812, 4-(4-((4′-chloro-4,4-dimethyl-3,4,5,6-tetrahydro-[1,1′-biphenyl]-2-yl)methyl)piperazin-1-yl)-N-((4-(((R)-4-((1R,4R)-5-((2-(2,4-dioxotetrahydropyrimidin-1(2H)-yl)-1-oxoisoindolin-5-yl)methyl)-2,5-diazabicyclo[2.2.1]heptan-2-yl)-1-(phenylthio)butan-2-yl)amino)-3-((trifluoromethyl)sulfonyl)phenyl)sulfonyl)benzamide], the values for the inhibition at 0.01 µM in assay [1], in assay [2] and in assay [3] were 50 to 60%, 20 to 30% and 30 to 40%, respectively. Further, the inhibition at 0.5 µM in assay [1] lay in the range of 80 to 100%; in assay [2], 80 to 100%; in assay [3], 50 to 60%. The “Degradation … (substrate protein remaining %)” value on BCL-2 is “A (0%≤substrate protein remaining %≤80%)”.

`CC1(C)CCC(c2ccc(Cl)cc2)=C(CN2CCN(c3ccc(C(=O)NS(=O)(=O)c4ccc(N[C@H](CCN5C6CCC5CN(Cc5ccc7c(c5)CN(N5CCC(=O)NC5=O)C7=O)C6)CSc5ccccc5)c(S(=O)(=O)C(F)(F)F)c4)cc3)CC2)C1` [GT-07814, 4-(4-((4′-chloro-4,4-dimethyl-3,4,5,6-tetrahydro-[1,1′-biphenyl]-2-yl)methyl)piperazin-1-yl)-N-((4-(((2R)-4-(3-((2-(2,4-dioxotetrahydropyrimidin-1(2H)-yl)-1-oxoisoindolin-5-yl)methyl)-3,8-diazabicyclo[3.2.1]octan-8-yl)-1-(phenylthio)butan-2-yl)amino)-3-((trifluoromethyl)sulfonyl)phenyl)sulfonyl)benzamide]: the figures for the inhibition at 0.01 µM in assay [1], in assay [2] and in assay [3] were 80 to 100%, 50 to 60% and 15 to 20%, respectively. Moreover, the inhibition at 0.5 µM in assay [1] fell in the range of 80 to 100%; in assay [2], 80 to 100%; in assay [3] it was 40 to 50%. Moreover, the “Degradation … (substrate protein remaining %)” value on BCL-2 was “A (0%≤substrate protein remaining %≤80%)”.

On to `CC1(C)CCC(c2ccc(Cl)cc2)=C(CN2CCN(c3ccc(C(=O)NS(=O)(=O)c4ccc(N[C@H](CCN5CC6CCC5CN6Cc5ccc6c(c5)C(=O)N(N5CCC(=O)NC5=O)C6=O)CSc5ccccc5)c(S(=O)(=O)C(F)(F)F)c4)cc3)CC2)C1` (stereo partly drawn) [GT-07815, 4-(4-((4′-chloro-4,4-dimethyl-3,4,5,6-tetrahydro-[1,1′-biphenyl]-2-yl)methyl)piperazin-1-yl)-N-((4-(((2R)-4-(5-((2-(2,4-dioxotetrahydropyrimidin-1(2H)-yl)-1,3-dioxoisoindolin-5-yl)methyl)-2,5-diazabicyclo[2.2.2]octan-2-yl)-1-(phenylthio)butan-2-yl)amino)-3-((trifluoromethyl)sulfonyl)phenyl)sulfonyl)benzamide], for which the results for the inhibition at 0.01 µM in assay [1], in assay [2] and in assay [3] were 5 to 10%, -5 to 0% and 15 to 20%, respectively. The inhibition at 0.5 µM in assay [1] was 80 to 100%; in assay [2] it was 50 to 60%; in assay [3] it was 30 to 40%. For the same compound, at BCL-2, the “Degradation … (substrate protein remaining %)” value is listed as “A (0%≤substrate protein remaining %≤80%)”.

In the case of `CC1(C)CCC(c2ccc(Cl)cc2)=C(CN2CCN(c3ccc(C(=O)NS(=O)(=O)c4ccc(N[C@H](CCN5C[C@H]6C[C@@H]5CN6Cc5ccc6c(c5)C(=O)N(N5CCC(=O)NC5=O)C6=O)CSc5ccccc5)c(S(=O)(=O)C(F)(F)F)c4)cc3)CC2)C1` [GT-07816, 4-(4-((4′-chloro-4,4-dimethyl-3,4,5,6-tetrahydro-[1,1′-biphenyl]-2-yl)methyl)piperazin-1-yl)-N-((4-(((R)-4-((1R,4R)-5-((2-(2,4-dioxotetrahydropyrimidin-1(2H)-yl)-1,3-dioxoisoindolin-5-yl)methyl)-2,5-diazabicyclo[2.2.1]heptan-2-yl)-1-(phenylthio)butan-2-yl)amino)-3-((trifluoromethyl)sulfonyl)phenyl)sulfonyl)benzamide], in assay [1], the inhibition at 0.01 µM fell in the range of 10 to 15% and the inhibition at 0.5 µM fell in the range of 60 to 70%. In assay [2], the inhibition at 0.01 µM lay in the range of 5 to 10% and the inhibition at 0.5 µM was 40 to 50%. Further, the “Degradation … (substrate protein remaining %)” value at BCL-2 is “A (0%≤substrate protein remaining %≤80%)”.
